In ChEMBL document CHEMBL2390897, “3-Anhydro-6-hydroxy-ophiobolin A, a new sesterterpene inhibiting the growth of methicillin-resistant Staphylococcus aureus and inducing the cell death by apoptosis on K562, from the phytopathogenic fungus Bipolaris oryzae” (Bioorg Med Chem Lett, 2013):
In brackets after ≈: the same amount, converted by molar mass. Activity calls are given as the source filed them. No cut-off for these calls is given here.

Columns and labels:
[1] = test system: Bacillus subtilis; test: Antimicrobial activity against Bacillus subtilis ATCC 6051; assay type: functional
[2] = test system: Candida albicans; test: Antimicrobial activity against Candida albicans SC5314; assay type: functional
[3] = test system: Pseudomonas aeruginosa; test: Antimicrobial activity against Pseudomonas aeruginosa PAO1; assay type: functional
[4] = test system: Staphylococcus aureus; test: Antimicrobial activity against methicillin-resistant Staphylococcus aureus; assay type: functional
[5] = test system: Staphylococcus aureus; test: Antimicrobial activity against Staphylococcus aureus ATCC 6538; assay type: functional
[6] = test system: K562; test: Cytotoxicity against human K562 cells after 48 hrs by MTT assay; assay type: functional, cell-based; details: K562, 48 h
[7] = test system: HepG2; test: Cytotoxicity against human HepG2 cells after 48 hrs by MTT assay; assay type: functional, cell-based; details: HepG2, 48 h
[8] = test system: K562; test: Induction of apoptosis in human K562 cells assessed as cell survival at 0.5 ug/ml after 5 hrs using annexin-V-FITC and propidium iodide staining by flow cytometry (reference value: 97.96%); assay type: functional; details: K562, 5 h, read-out: Activity
[9] = test system: K562; test: Induction of apoptosis in human K562 cells assessed as cell survival at 1 ug/ml after 5 hrs using annexin-V-FITC and propidium iodide staining by flow cytometry (reference value: 97.96%); assay type: functional; details: K562, 5 h, read-out: Activity
[10] = test system: K562; test: Induction of apoptosis in human K562 cells assessed as cell survival at 0.75 ug/ml after 5 hrs using annexin-V-FITC and propidium iodide staining by flow cytometry (reference value: 97.96%); assay type: functional; details: K562, 5 h, read-out: Activity
[11] = test system: K562; test: Induction of apoptosis in human K562 cells assessed as viable cells at 1 ug/ml after 5 hrs using annexin-V-FITC and propidium iodide staining by flow cytometry (reference value: 99.86%); assay type: functional; details: K562, 5 h, read-out: Activity
[12] = test system: K562; test: Induction of apoptosis in human K562 cells assessed as […] of Bcl-2 at 2 ug/ml after 4 hrs by Western blot analysis; assay type: functional, cell-based
[13] = test system: K562; test: Induction of apoptosis in human K562 cells assessed as cell survival at 1 ug/ml after 1 hr using annexin-V-FITC and propidium iodide staining by flow cytometry (reference value: 97.89%); assay type: functional; details: K562, 1 h, read-out: Activity
[14] = test system: K562; test: Induction of apoptosis in human K562 cells assessed as cell survival at 1 ug/ml after 4 hrs using annexin-V-FITC and propidium iodide staining by flow cytometry (reference value: 97.89%); assay type: functional; details: K562, 4 h, read-out: Activity
[15] = test system: K562; test: Induction of apoptosis in human K562 cells assessed as effect on Bcl-XL expression at 2 ug/ml after 4 hrs by Western blot analysis; assay type: functional, cell-based
[16] = test system: K562; test: Induction of apoptosis in human K562 cells assessed as viable cells at 2 ug/ml after 3 hrs using annexin-V-FITC and propidium iodide staining by flow cytometry (reference value: 93.69%); assay type: functional; details: K562, 3 h, read-out: Activity
[17] = test system: K562; test: Induction of apoptosis in human K562 cells assessed as viable cells after 3 hrs using annexin-V-FITC and propidium iodide staining by flow cytometry (reference value: 93.69%); assay type: functional, cell-based
[18] = test system: K562; test: Induction of apoptosis in human K562 cells assessed as viable cells at 2 ug/ml using annexin-V-FITC and propidium iodide staining by flow cytometry (reference value: 93.69%); assay type: functional, cell-based; details: TDE = time-dependent effect
[19] = test system: K562; test: Induction of apoptosis in human K562 cells assessed as cell survival at 1 ug/ml after 8 hrs using annexin-V-FITC and propidium iodide staining by flow cytometry (reference value: 97.89%); assay type: functional; details: K562, 8 h, read-out: Activity
[20] = test system: K562; test: Induction of apoptosis in human K562 cells assessed as cell survival at 4 ug/ml after 5 hrs using annexin-V-FITC and propidium iodide staining by flow cytometry (reference value: 97.96%); assay type: functional; details: K562, 5 h, read-out: Activity
[21] = test system: K562; test: Induction of apoptosis in human K562 cells assessed as cell survival at 1 ug/ml after 2 hrs using annexin-V-FITC and propidium iodide staining by flow cytometry (reference value: 97.89%); assay type: functional; details: K562, 2 h, read-out: Activity
[22] = test system: K562; test: Induction of apoptosis in human K562 cells assessed as cell survival at 1 ug/ml after 6 hrs using annexin-V-FITC and propidium iodide staining by flow cytometry (reference value: 97.89%); assay type: functional; details: K562, 6 h, read-out: Activity
[23] = test system: K562; test: Induction of apoptosis in human K562 cells assessed as viable cells at 0.75 ug/ml after 5 hrs using annexin-V-FITC and propidium iodide staining by flow cytometry (reference value: 99.86%); assay type: functional; details: K562, 5 h, read-out: Activity
[24] = test system: K562; test: Induction of apoptosis in human K562 cells assessed as viable cells at 4 ug/ml after 5 hrs using annexin-V-FITC and propidium iodide staining by flow cytometry (reference value: 99.86%); assay type: functional; details: K562, 5 h, read-out: Activity
[25] = test system: K562; test: Induction of apoptosis in human K562 cells assessed as down regulation of c-Myc at 2 ug/ml after 3 hrs by Western blot analysis; assay type: functional, cell-based
[26] = test system: K562; test: Induction of apoptosis in human K562 cells assessed as viable cells at 2 ug/ml after 5 hrs using annexin-V-FITC and propidium iodide staining by flow cytometry (reference value: 99.86%); assay type: functional; details: K562, 5 h, read-out: Activity
[27] = test system: K562; test: Induction of apoptosis in human K562 cells assessed as cell survival at 0.25 ug/ml after 5 hrs using annexin-V-FITC and propidium iodide staining by flow cytometry (reference value: 97.96%); assay type: functional; details: K562, 5 h, read-out: Activity
[28] = test system: K562; test: Induction of apoptosis in human K562 cells assessed as viable cells at 0.5 ug/ml after 5 hrs using annexin-V-FITC and propidium iodide staining by flow cytometry (reference value: 99.86%); assay type: functional; details: K562, 5 h, read-out: Activity
[29] = test system: K562; test: Induction of apoptosis in human K562 cells assessed as cell survival at 2 ug/ml after 5 hrs using annexin-V-FITC and propidium iodide staining by flow cytometry (reference value: 97.96%); assay type: functional; details: K562, 5 h, read-out: Activity

Which MIC [1] does the source give for `CN[C@H](CC(C)C)C(=O)N[C@H]1C(=O)N[C@@H](CC(N)=O)C(=O)N[C@H]2C(=O)N[C@H]3C(=O)N[C@H](C(=O)N[C@H](C(=O)O)c4cc(O)cc(O)c4-c4cc3ccc4O)[C@H](O)c3ccc(c(Cl)c3)Oc3cc2cc(c3O[C@@H]2O[C@H](CO)[C@@H](O)[C@H](O)[C@H]2O[C@H]2C[C@](C)(N)[C@H](O)[C@H](C)O2)Oc2ccc(cc2Cl)[C@H]1O` [VANCOMYCIN] here?
Its MIC is 0.5 µg/mL (≈ 0.345 µM).

`CC(=O)N1CCN(c2ccc(OCC3COC(Cn4ccnc4)(c4ccc(Cl)cc4Cl)O3)cc2)CC1` (configuration not stated) [KETOCONAZOLE] was tested. Which MIC [2] did it give?
The MIC was 0.02 µg/mL (≈ 0.0376 µM).

Which MIC [3] does the source give for `O=C(O)c1cn(C2CC2)c2cc(N3CCNCC3)c(F)cc2c1=O` [CIPROFLOXACIN] here?
Its MIC is 1 µg/mL (≈ 3.02 µM).

Which results are given for `CC(C)=C[C@H]1C[C@H](C)[C@]2(CC[C@]3(C)C[C@@H]4C(C)=CC(=O)[C@@H]4/C(C=O)=C\C[C@H]32)O1`?
MIC [3]: > 100 µg/mL; MIC [4]: > 100 µg/mL; MIC [5]: > 100 µg/mL; IC50 [6]: 39.5 µM; MIC [1]: > 100 µg/mL; IC50 [7]: 55.7 µM; MIC [2]: > 100 µg/mL

How did the viability at 0.5 µg/mL [8] turn out when `CC(C)=C[C@H]1C[C@H](C)[C@]2(CC[C@]3(C)C[C@@H]4C(C)=CC(=O)[C@]4(O)/C(C=O)=C\C[C@H]32)O1` was run?
The viability at 0.5 µg/mL was 88.3%.

What about the MIC [3] of the same compound?
The MIC was over 100 µg/mL.

What about the viability at 1 µg/mL [9] of the same compound?
The viability at 1 µg/mL was 50.2%.

And the viability at 0.75 µg/mL [10]?
The viability at 0.75 µg/mL was 61.5%.

And the MIC [4]?
The MIC was 12.5 µg/mL (≈ 31.4 µM).

What about the viability at 1 µg/mL [11] of the same compound?
Its viability at 1 µg/mL is 49.6%.

What about the Activity [12] of the same compound?
Its Activity is “Active”.

What about the viability at 1 µg/mL [13] of the same compound?
Its viability at 1 µg/mL is 91.3%.

What about the viability at 1 µg/mL [14] of the same compound?
Its viability at 1 µg/mL is 56%.

What about the Activity [15] of the same compound?
The Activity was “inactive”.

And the viability at 2 µg/mL [16]?
Its viability at 2 µg/mL is 32.6%.

What about the Activity [17] of the same compound?
Its Activity is “Dose-dependent effect”.

And the Activity [18]?
The Activity was “tde”.

And the viability at 1 µg/mL [19]?
Its viability at 1 µg/mL is 5.86%.

What about the viability at 4 µg/mL [20] of the same compound?
The viability at 4 µg/mL was 2.45%.

What about the viability at 1 µg/mL [21] of the same compound?
The viability at 1 µg/mL was 69.7%.

And the MIC [5]?
Its MIC is 12.5 µg/mL (≈ 31.4 µM).

What about the viability at 1 µg/mL [22] of the same compound?
The viability at 1 µg/mL was 27.5%.

What about the viability at 0.75 µg/mL [23] of the same compound?
Its viability at 0.75 µg/mL is 62.8%.

What about the IC50 [6] of the same compound?
Its IC50 is 4.06 µM.

And the viability at 4 µg/mL [24]?
Its viability at 4 µg/mL is 1.78%.

And the Activity [25]?
Its Activity is “Active”.

And the MIC [1]?
The MIC was 12.5 µg/mL (≈ 31.4 µM).

What about the viability at 2 µg/mL [26] of the same compound?
Its viability at 2 µg/mL is 25.9%.

And the IC50 [7]?
Its IC50 is 6.49 µM.

And the viability at 0.25 µg/mL [27]?
The viability at 0.25 µg/mL was 96.6%.

And the MIC [2]?
The MIC was 50 µg/mL (≈ 125 µM).

And the viability at 0.5 µg/mL [28]?
Its viability at 0.5 µg/mL is 87.5%.

What about the viability at 2 µg/mL [29] of the same compound?
The viability at 2 µg/mL was 26.9%.

Which IC50 [7] does the source give for `COc1cc([C@@H]2c3cc4c(cc3[C@@H](O[C@@H]3O[C@@H]5CO[C@@H](C)O[C@H]5[C@H](O)[C@H]3O)[C@H]3COC(=O)[C@H]23)OCO4)cc(OC)c1O` [ETOPOSIDE] here?
Its IC50 is 6.41 µM.

Which MIC [3] does the source give for `CC(C)=C[C@H]1C[C@H](C)[C@]2(CC[C@]3(C)C[C@@H]4C(C)=CC(=O)[C@H]4/C(C=O)=C\C[C@H]32)O1` [3-ANHYDRO-6-EPI-OPHIOBOLIN A] here?
Its MIC is over 100 µg/mL.

And the MIC [4]?
Its MIC is over 100 µg/mL.

And the MIC [5]?
Its MIC is over 100 µg/mL.

And the IC50 [6]?
Its IC50 is 35.6 µM.

And the MIC [1]?
Its MIC is over 100 µg/mL.

And the IC50 [7]?
The IC50 was 47.1 µM.

What about the MIC [2] of the same compound?
The MIC was over 100 µg/mL.
